Measured values taken from patent US8486382B2, “Method for treating cervical cancer” (ZymoGenetics, Inc., priority 2001, dated 2013).

Test system: HeLa229
Test: HeLa229 cytotoxicity assay (MTT readout)
Type: cell-based
Details: 72 hrs
Protocol: We tested IL-20 in a HeLa229 cytotoxicity assay to measure the ability of IL-20 to prevent cells from growing during normal growth conditions. We used MTT reagent (Promega, Madison, WI USA) as our detection and readout for this inhibition assay. Procedure of a cytotoxicity assay:
Day 1—Plate cells out in complete growth media (with serum) at 5000 cells/well in a 96 well format and let them incubate overnight at 37 degrees and 5% CO2.
Day 2—Dump off media and add a dose response of appropriate ligands in complete growth media (IL-20, zmda1, and MDA7 at 10, 100, and 1000 ng/ml.), along with a positive control retinoic acid (100 uM) in complete growth media, while leaving some wells in complete growth media as controls of how the cells normally grow under normal conditions. Put the cells in incubator and let the assay go for 72 hrs.
Day 5—Add 15 ul/well of MTT reagent, let cells inc. for 4 hrs., then add 100 ul of stop solution, let cells inc. for an additional 1 hr., then read the plate on a multilabel counter (Victor2, PerkinElmer Life Sciences Inc., Boston). The MTT protocol will give you two readings, one at a 650 wavelength (background) and one at a 572 wavelength. Subtract the 650 reading from the 572 reading to get your actual output. These numbers are averaged and converted to a % inhibition value.

Molecule | inhibition at 100 µM (Homo sapiens, HeLa 229, HeLa229 cells, retinoic acid 100 uM (positive control), read-out: inhibition of growth) | maximal inhibition of growth (HeLa229 cells, IL-20 dose response 10, 100, and 1000 ng/ml)
CC1=C(/C=C/C(C)=C/C=C/C(C)=C/C(=O)O)C(C)(C)CCC1 [Retnoic Acid, retinoic acid] | 53% | –
IL-20: Interleukin-20 (formally called Zcyto10); human polypeptide of 176 amino acids, SEQ ID NO:2 (protein, listed as Homo sapiens) MKASSLAFSLLSAAFYLLWTPSTGLKTLNLGSCVIATNLQEIRNGFSDIRGSVQAKDGNIDIRILRRTESLQDTKPANRCCLLRHLLRLYLDRVFKNYQTPDHYTLRKISSLANSFLTIKKDLRLCHAHMTCHCGEEAMKKYSQILSHFEKLEPQAAVVKALGELDILLQWMEETE | – | 20%
